Data set [1] in a line: physchem. To be noted: organic solvent or mixture.
Method: 0.00471 grams ("g") of cabergoline was added to 1 milliter ("mL") of perfluorooctanol (PFO). The suspension was sonicated for 15 minutes and then filtered through a 0.45μ filter. 100 microliters ("μL") of the filtrate was extracted with 1 mL of phosphate buffer (pH 3.0). 10 μL of the aqueous portion was analyzed for cabergoline by injecting in onto the HPLC. The mobile phase was made as follows:
5.2 mL of concentrated phosphoric acid, 6.0 mL of tetrabutyl ammonium hydroxide, and 6.612 g of dibasic ammonium phosphate were added to 1500 mL of deionized water. The mixture was stirred until it formed a clear solution. To the above solution 1800 mL of acetonitrile, 400 mL of tetrahydrofuran and sufficient water were added to make 4 liters of mobile phase. The mobile phase was pumped at 1.5 mL/minute through a cyano column. The eluent was monitored at 280 nanometers ("nm").
0.00126 g of cabergoline was added to 1 mL of perfluoro-2-methyl-oxahexanoic acid, methyl ester ("12205-1"). The suspension was sonicated for 15 minutes and then filtered through a 0.45μ filter. 100 μL of the filtrate was extracted with 1 mL of phosphate buffer (pH 3.0). 10 μL of the aqueous portion was analyzed for cabergoline by injecting it onto the HPLC.
The nature of data set [2]: Storage stability (hydrolysis) of cabergoline in 12205-1, HPLC. The format is physicochemical. The settings on record: room temperature, 40° C. and 50° C., FIG. 1b. The procedure: 0.0056 g of cabergoline was weighed in a vial. […] The mixture was vortexed well and then sonicated for 30 minutes. The suspension was filtered through a 0.2μ acrodisc. The filtrate was split into 3 vials. The vials were stored at room temperature ("RT"), 40° C. and 50° C. The vial stored at room temperature was wrapped in aluminum foil. 100 μL of sample was withdrawn as a function of time. 1 mL of pH 3.0 phosphate buffer was added to the sample and vortexed. The supernatant was taken and analyzed by HPLC as described above.

A short description of data set [3]: physchem. The settings on record: 12205-1 perfluoro ester, organic solvent or mixture.
Data set [4] is described as follows: physchem. To be noted: perfluorooctanol, organic solvent or mixture.
Method: (§1) 0.01847 g of leflunomide was added to 1 mL of perfluorooctanol ("PFO"). The suspension was sonicated for 15 minutes. The suspension was filtered through a 0.45μ filter and 100 μL of the filtrate was extracted with 1 mL of the mobile phase for leflunomide. The mobile phase consisted of 40:60 of acetonitrile: 0.01m NaH2 PO4 adjusted to pH 7.0. 10 μL of the extract was injected on to a C-18 reverse phase column. The sample was eluted with the mobile phase with a flow rate of 2 mL/minute and monitored at 254 nm.
(§2) 0.00207 g of leflunomide was added to 1 mL of perfluoro-2-methyl-oxahexanoic acid, methyl ester (12205-1). The suspension was filtered through a 0.45μ filter and 100 μL of the filtrate was extracted with 1 mL of the mobile phase of leflunomide. 10 μL of the extract was injected on to HPLC to determine the solubility of leflunomide.
Data set [5] in a line: Solubility of leflunomide in fluoroalkyl hydrocarbon vehicle (filtration, extraction into mobile phase, HPLC). To be noted: 12205-1 perfluoro ester, organic solvent or mixture.
Method: as §1, §2
Data set [6] in a line: Storage stability (hydrolysis) of leflunomide in 12205-1, HPLC. The settings on record: 60° C. in an oven, FIG. 2b. The format is physicochemical. The procedure: The suspension was filtered and the filtrate was put on stability testing at 60° C. in an oven. 100 μL of sample was withdrawn as a function of time. The vehicle was evaporated and the residual sample was reconstituted in 1 mL of the mobile phase for leflunomide. The sample was analyzed by HPLC to determine the leflunomide content. […] The composition is therefore expected to be stable during storage.

Data set [7] is described as follows: Solubility of betaxolol and dipivefrin, dissolved together, in 12205-1 (extraction into pH 3.0 phosphate buffer, reverse phase HPLC). The settings on record: 12205-1 perfluoro ester, organic solvent or mixture.
Data set [8] in a line: Solubility of dipivefrin in 12205-1 (excess drug stirred 30 minutes, filtered, extracted with pH 3.0 phosphate buffer). The class given is physicochemical. To be noted: 12205-1 perfluoro ester, organic solvent or mixture, vehicle 12205-1, excess dipivefrin alone, 0.2μ filter. The procedure: The solution was filtered through a 0.2μ filter and 100 μl of the sample was extracted with phosphate buffer (pH 3.0). The aqueous portion was analyzed for dipivefrin.

Structures are written as SMILES. Values after ≈ are worked out from the molar mass of the structure shown.

As for `C=CCN1C[C@H](C(=O)N(CCCN(C)C)C(=O)NCC)C[C@@H]2c3cccc4[nH]cc(c34)C[C@H]21` [cabergoline], the solubility in the data set “physchem [1]” (12205-1 perfluoro ester) came to 1040 µg/mL (≈ 2290 µM); in the data set “physchem [1]” (perfluorooctanol) it was 2700 µg/mL (≈ 5980 µM). For the same compound, in data set [2], the “hydrolysis of cabergoline on storage” value is reported as “no hydrolysis”.

Consider `CC(C)NCC(O)COc1ccc(CCOCC2CC2)cc1` (stereo not drawn) [betaxolol], for which, in the data set “physchem [3]”, the solubility is > 1000 µg/mL.

On to `Cc1oncc1C(=O)Nc1ccc(C(F)(F)F)cc1` [leflunomide], for which the results for the solubility (in the data set “physchem [4]”; in data set [5]) were 2000 µg/mL (≈ 7400 µM) and 238 µg/mL (≈ 881 µM), respectively. The “hydrolysis of leflunomide on storage” value in data set [6] is “no hydrolysis”.

Regarding `CNCC(O)c1ccc(OC(=O)C(C)(C)C)c(OC(=O)C(C)(C)C)c1` (stereo not drawn) [dipivefrin], in data set [7], the solubility was > 1000 µg/mL. Also, the solubility at 0.5 h in data set [8] was > 1000 µg/mL.

By solubility is commonly meant how much of the substance goes into solution per volume.

These data come from patent publication US5874469A, “Fluoroalkyl hydrocarbons for administering water insoluble or unstable drugs” (Alcon Laboratories, Inc., priority 1996, dated 1999).
